Here are results for 5 compounds from PMC9030166, “Natural Phaeosphaeride A Derivatives Overcome Drug Resistance of Tumor Cells and Modulate Signaling Pathways” (Pharmaceuticals, 2022).

Data set [1] concerns K562. Kind of data set: MTT cytotoxicity, K562 chronic myeloid leukemia cells. It counts as cell-based. The conditions noted are these: Homo sapiens, K562, suspension culture, 48 h (Table 2). From the text:
(§1) Cell cultures used in the work: adhesive cultures HBL-100 cells (cells of a normal mammary gland epithelium, immortalized by the SV40 virus and acquired tumorigenicity); MCF-7 breast cancer cells; PC-3 prostate adenocarcinoma cells; HCT-116 colorectal cancer cells; non-small cell lung cancer cells A549; human embryonic kidney cells HEK293; suspension cultures (NCI-H929 and RPMI8226 multiple myeloma cells), K562 chronic myeloid leukemia cells; THP-1 acute monocytic leukemia cells; and Jurkat acute T-cell leukemia cells. We also used several primary cultures of soft tissue sarcomas at 3–4passeges, kindly provided by T.I. Fetisov (The Ethics Committee of N.N. Blokhin NMRCO, protocol code 18-28-09095 and date of approval 28 September 2018).
(§2) Modifications of cell lines: K562/i-S9 is a clone obtained after transfection of K562 cells with the ABCB1 (MDR1) gene-encoding P-glycoprotein [36]. Cells HBL-100/Dox and K562/i-S9_Dox are cells obtained by long-term selection with increasing concentrations of doxorubicin (Sigma-Aldrich, St. Louis, MO, USA) from HBL-100 and K562/i-S9 cells, respectively. MCF-7, A594 cells, and primary cultures of soft tissue sarcomas were cultured in DMEM medium (PanEko, Russia), PC-3 and HCT-116 cells and all suspension cultures in RPMI1640 medium (PanEko, Russia) supplemented with 10% fetal bovine serum (GE Healthcare LifeSciences, USA), and gentamicin at a concentration of 40 μg/mL at 37 °C and 5% CO2.
(§3) Cells MCF-7, PC-3, A549, and HCT-116, and primary cultures of STSwere seeded in 96-well plates, 6 × 10^3 cells per well in 90 μL of culture medium. Suspension cultures were seeded at a concentration of 25 × 10^3 cells per well in 135 μL of medium. The test substances were dissolved in DMSO (Applichem, Council Bluffs, IA, USA) until a concentration of 1 × 10^−^2 M was obtained; for the subsequent dilution of the substances, a serum-free culture medium was used. The next day, for adhesive cultures, and on the same day, for suspension cultures, substances were added to the plates in a volume of 10 μL (adhesive cultures) and 15 μL (suspension cultures) per well at various concentrations; each concentration was added in 3–4 repetitions. The cells were cultured in the presence of substances for 48 h. Then, MTT reagent (PanEko, Moscow, Russia) was added to the wells at a concentration of 5 mg/mL in a volume of 20 μL per well. After 1.5–2 h, the medium with the reagent was removed, and the precipitate of the crystals of formazan was dissolved in 60 μL of DMSO. The optical density was determined using a Multiskan FC spectrophotometer (Thermo Scientific, Waltham, MA, USA) at a wavelength of 540 nm.
(§4) Based on the results of the experiments, a schedule was plotted of the dependence of the percentage of surviving cells (from control) on the concentration of the compound, and the sought concentration IC50 was calculated. The experiments were carried out in 3–4 times.

The test system of data set [2] is CMT № 3 (Epithelial Sarcoma (Metastasis)). The experiment in a line: MTT cytotoxicity, primary culture of soft tissue sarcoma CMT № 3. The format is cell-based. The conditions noted are these: Homo sapiens, 48 h.
Text: It is believed that such cultures have a molecular profile that corresponds more with cells from the human body, in comparison with that of stable cultures of tumor cells (Table 3).
as §1, §2
as §3, with “Then, MTT reagent (PanEko, Moscow, Russia) was added to the wells at a concentration of 5 mg/mL in a volume of 20 μL per well. After 1.5–2 h, the medium with the reagent was removed, and the precipitate of the crystals of formazan was dissolved in 60 μL of DMSO.” left out
Based on the results of the experiments, a schedule was plotted of the dependence of the percentage of surviving cells (from control) on the concentration of the compound, and the sought concentration IC50 was calculated. […]

Data set [3] relates to A549. The experiment in a line: MTT cytotoxicity, A549 non-small cell lung cancer cells. The conditions noted are these: 48 h; for IC50: Homo sapiens, A549, adhesive tumor culture. It counts as cell-based, human.
Text: as §1, §2, §3, §4

Data set [4] has as its system A431 cells. Kind of data set: IC50 on A431 cells (xCelligence RTCA cell index). It counts as cell-based. The conditions noted are these: Homo sapiens, A-431. The text has this: A431 cells are characterized by a high inducibility of transcription factors STAT3 and STAT5. In turn, phaeosphaeride A and its derivatives are probably inhibitors of the STAT3 gene. Therefore, the A431 cell line was chosen as a model for searching for possible targets for the action of phaeosphaeride A derivatives. Table 7 presents IC50 data for phaeosphaeride A derivatives on A431 cells.
The effect of various concentrations of PPA derivatives on the cell culture was studied using xCelligence RTCA equipment (AceaBioscience, San Diego, CA, USA). The concentration closest to the IC50 (10 μM) was chosen as the experimental concentration. The selected concentration of phaeosphaeride A derivatives allows for the assessment of the early effect of compounds on cells and compares their effectiveness. In this experiment, the signaling pathways Akt (pSer473), p70S6K (pThr412), NFkB (p65-pSer536), and CREB (pSer133) were not activated (Table 8). The stress-activated signaling pathways ERK/MAP kinase 1/2 (pThr185/pTyr187), JNK (pThr183/pTyr185), and p38 (pThr180/pTyr182) were activated for these compounds.
To determine the integral cellular response using the xCelligence RTCA equipment (AceaBioscience, Santa Clara, CA, USA), 20 thousand cells were inoculated into a well of a specialized plate allowing the determination of the cell index in real time and cultured in complete growth medium. The next day after the seeding, the medium was replaced with an experimental one (compounds at concentrations of […]). The cell index was monitored for 3 days after the addition of the xenobiotic. The concentration closest to the IC50 (10 μM) was chosen as the experimental concentration.

The target in data set [5] is T1, P-glycoprotein (Homo sapiens, UniProt P08183).
T1 construct: expressed in transfected cells; host or cells: K562/i-S9_Dox (K562 transfected with ABCB1/MDR1, then selected with increasing doxorubicin)
T1 sequence (P08183 whole entry): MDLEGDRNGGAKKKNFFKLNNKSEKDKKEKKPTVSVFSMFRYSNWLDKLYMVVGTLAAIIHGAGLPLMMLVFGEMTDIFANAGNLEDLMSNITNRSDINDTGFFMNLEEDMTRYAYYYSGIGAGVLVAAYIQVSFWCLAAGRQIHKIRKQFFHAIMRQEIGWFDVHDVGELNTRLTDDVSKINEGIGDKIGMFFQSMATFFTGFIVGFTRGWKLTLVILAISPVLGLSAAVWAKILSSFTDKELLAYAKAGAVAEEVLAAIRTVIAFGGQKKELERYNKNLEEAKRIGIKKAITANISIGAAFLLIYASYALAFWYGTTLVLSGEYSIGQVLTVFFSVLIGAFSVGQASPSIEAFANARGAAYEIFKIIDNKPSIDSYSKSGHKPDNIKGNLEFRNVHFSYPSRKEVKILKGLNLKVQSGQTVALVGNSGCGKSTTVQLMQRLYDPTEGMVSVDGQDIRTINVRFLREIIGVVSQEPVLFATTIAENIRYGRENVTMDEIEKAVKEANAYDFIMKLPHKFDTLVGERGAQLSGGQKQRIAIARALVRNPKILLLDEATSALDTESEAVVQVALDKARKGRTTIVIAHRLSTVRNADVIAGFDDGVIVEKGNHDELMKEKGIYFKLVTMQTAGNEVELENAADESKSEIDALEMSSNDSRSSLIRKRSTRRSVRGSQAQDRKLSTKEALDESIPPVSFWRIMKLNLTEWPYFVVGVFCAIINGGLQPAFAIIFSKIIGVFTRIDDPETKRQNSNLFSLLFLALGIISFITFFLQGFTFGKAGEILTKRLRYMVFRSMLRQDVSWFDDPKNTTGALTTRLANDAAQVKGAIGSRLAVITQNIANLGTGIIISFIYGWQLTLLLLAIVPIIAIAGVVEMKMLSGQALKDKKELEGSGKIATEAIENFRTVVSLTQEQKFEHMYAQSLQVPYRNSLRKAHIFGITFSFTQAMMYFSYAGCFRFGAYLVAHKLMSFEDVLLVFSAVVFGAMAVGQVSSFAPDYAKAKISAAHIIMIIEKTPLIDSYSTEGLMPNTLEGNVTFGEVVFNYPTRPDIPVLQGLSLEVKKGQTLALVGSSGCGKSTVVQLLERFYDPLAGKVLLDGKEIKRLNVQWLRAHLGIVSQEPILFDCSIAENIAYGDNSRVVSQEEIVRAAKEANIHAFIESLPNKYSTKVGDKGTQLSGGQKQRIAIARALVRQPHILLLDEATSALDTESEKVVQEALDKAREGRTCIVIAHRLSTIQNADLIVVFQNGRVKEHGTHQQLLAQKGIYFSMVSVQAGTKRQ
Kind of data set: Release of rhodamine 123 (Rd123) from K562/i-S9_Dox cells, flow cytometry. The conditions noted are these: K562/i-S9_Dox cells after Rd123 release, compound 20 μM, 35 min; release without compound 17.1 ± 6.6. The format is cell-based. The procedure:
The principle of the test is as follows: Rd123 is a fluorophore and a known P-gp substrate. During incubation, Rd123 enters the cells by simple diffusion, and then Rd123 begins to interact with P-gp, which releases it from the cell. Cells in which Rd123 is present are stained and can be detected by flow cytometry. The more efficiently P-gp works, the less stained cells in the population remain over time.
The experiment used K562/i-S9_Dox cells with P-gp overexpression. Cells (5 × 10^5 per point) were incubated with Rd123 at a concentration of 3.5 μg/mL for 20 min in serum-free RPMI1640 medium. Furthermore, the efficiency of Rd123 entry into cells was assessed. […] Incubation with substances took place for 35 min in 1 mL of serum-free medium. Then, the cells were precipitated, washed with PBS solution, and the % of stained cells in the population were assessed on a flow cytometer.

The subject of data set [6] is THP-1. The experiment in a line: MTT cytotoxicity, THP-1 acute monocytic leukemia cells. The format is cell-based. The conditions noted are these: Homo sapiens, suspension culture, 48 h.
Text: as §1, §2, §3, §4

Where “and” joins values, the source holds several entries; their conditions need not be identical. Identical values can stand only once.

One may read the IC50 as the midpoint of a concentration-inhibition curve. For the compound `C=C1C2=C(C(=O)N1OC)[C@@H](N1CCCC1)[C@@](C)(O)[C@H](CCCCC)O2` [Compound 1], the IC50 in data set [1] came out at 3.8 ± 0.6 µM; in data set [2], 4.8 ± 0.9 µM; in data set [3], 14 ± 0.1 µM; in data set [4], 3.7 µM; in data set [6], 1.5 ± 0.4 µM. Further, the “% Luminous Cells” value in data set [5] is 73% and 73.4 ± 6.7%.

As to `C=C1C2=C(C(=O)N1OC)[C@@H](N(C)C)[C@@](C)(O)[C@H](CCCCC)O2` [Compound 2, (2S,3R,4R)-4-(dimethylamino)-3-hydroxy-6-methoxy-3-methyl-7-methylene-2-pentyl-3,4,6,7-tetrahydropyrano[2,3-c]pyrrol-5(2H)-one], the IC50 in data set [1] is 2.4 ± 0.7 µM; in data set [2], 7.8 ± 0.6 µM; in data set [3], 9.6 ± 2.1 µM; in data set [4], 1.9 µM; in data set [6] it was 0.9 ± 0.3 µM. Moreover, the “% Luminous Cells” value in data set [5] is 82% and 82.4 ± 3.0%.

As to `C=C1C2=C(C(=O)N1OC)[C@@H](N(CCCC)CCCC)[C@@](C)(O)[C@H](CCCCC)O2` [Compound 5, (2S,3R,4R)-4-(dibutylamino)-3-hydroxy-6-methoxy-3-methyl-7-methylene-2-pentyl-3,4,6,7-tetrahydropyrano[2,3-c]pyrrol-5(2H)-one], the IC50 in data set [1] is 6.5 ± 0.5 µM; in data set [3], 23.4 ± 2.3 µM; in data set [4], over 50 µM; in data set [6], 8.2 ± 0.6 µM.

In the case of `C=C1C2=C(C(=O)N1OC)[C@@H](N(CC)CCO)[C@@](C)(O)[C@H](CCCCC)O2` [Compound 9, (2S,3R,4R)-4-[ethyl(2-hydroxyethyl)amino]-3-hydroxy-6-methoxy-3-methyl-7-methylene-2-pentyl-3,4,6,7-tetrahydropyrano[2,3-c]pyrrol-5(2H)-one], the IC50 in data set [1] amounted to 3.7 ± 0.5 µM; in data set [2] it was 13 ± 0.9 µM; in data set [3], 8.9 ± 0.2 µM; in data set [4] it was 4.6 µM; in data set [6], 1.7 ± 0.2 µM. Also, the “% Luminous Cells” value in data set [5] was 80% and 80.2 ± 6.2%.

As to `CCCCC[C@@H]1OC2=C(C(=O)N(OC)/C2=C\n2cnnc2)C(n2cnnc2)[C@@]1(C)O` (some centres unmarked) [Compound 10], the IC50 in data set [1] is 45 ± 5.4 µM; in data set [4], over 50 µM; in data set [6] it was 42 ± 5.2 µM. Further, the “IC50 value, A549” value in data set [3] (adhesive tumor culture) is listed as “not active”.
